Remaining binding data for 3 compounds are collected here from patent publication US12275731B2, “Azaindole inhibitors of wild-type and mutant forms of LRRK2” (DANA-FARBER CANCER INSTITUTE, INC., priority 2018, dated 2025).

Common to all, as to test: KinomeScan profiling
Common to all, as to format: binding

Test [1] addresses T1, TYRO3 (Homo sapiens, UniProt Q06418).
T1 sequence (Q06418 41-890): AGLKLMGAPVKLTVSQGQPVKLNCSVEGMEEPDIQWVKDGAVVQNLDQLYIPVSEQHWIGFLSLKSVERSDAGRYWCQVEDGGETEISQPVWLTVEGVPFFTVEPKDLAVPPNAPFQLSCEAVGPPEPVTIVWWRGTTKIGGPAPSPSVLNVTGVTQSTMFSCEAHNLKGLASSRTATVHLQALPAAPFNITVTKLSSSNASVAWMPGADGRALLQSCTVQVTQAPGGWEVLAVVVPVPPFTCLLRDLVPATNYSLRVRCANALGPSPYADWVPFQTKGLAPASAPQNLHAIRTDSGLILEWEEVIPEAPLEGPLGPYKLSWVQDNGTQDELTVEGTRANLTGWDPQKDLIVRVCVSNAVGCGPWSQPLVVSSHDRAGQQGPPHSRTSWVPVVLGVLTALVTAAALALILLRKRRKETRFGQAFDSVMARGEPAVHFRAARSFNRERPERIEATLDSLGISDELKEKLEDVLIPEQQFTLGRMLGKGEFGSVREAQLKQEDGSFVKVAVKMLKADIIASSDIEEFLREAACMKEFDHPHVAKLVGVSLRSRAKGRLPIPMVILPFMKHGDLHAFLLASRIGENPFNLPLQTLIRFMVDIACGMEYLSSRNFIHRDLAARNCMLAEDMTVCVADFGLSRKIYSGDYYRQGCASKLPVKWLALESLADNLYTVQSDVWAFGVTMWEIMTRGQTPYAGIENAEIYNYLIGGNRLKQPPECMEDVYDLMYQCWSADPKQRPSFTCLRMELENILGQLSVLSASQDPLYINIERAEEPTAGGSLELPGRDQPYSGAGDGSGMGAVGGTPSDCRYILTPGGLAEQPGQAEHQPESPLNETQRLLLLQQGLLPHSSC
Particulars: TYRO3, 1 μM; read-out: % control. An outline of the steps: (§1)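 Normalised RLU (% control; DMSO 100%, positive control 0%) was measured for compounds dosed at 1 μM over 468 kinases, active cut-off <35%.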

Test [2] addresses T2, PIK3CA(H1047Y) (Homo sapiens, UniProt P42336, H1047Y).
T2 construct: purchased KinomeScan® (panel service)
The following applies: read-out: % control. An outline of the steps: as §1

In test [3] the target is T3, AKT3 (Homo sapiens, UniProt Q9Y243).
T3 construct: purchased KinomeScan®
T3 sequence (Q9Y243 whole entry): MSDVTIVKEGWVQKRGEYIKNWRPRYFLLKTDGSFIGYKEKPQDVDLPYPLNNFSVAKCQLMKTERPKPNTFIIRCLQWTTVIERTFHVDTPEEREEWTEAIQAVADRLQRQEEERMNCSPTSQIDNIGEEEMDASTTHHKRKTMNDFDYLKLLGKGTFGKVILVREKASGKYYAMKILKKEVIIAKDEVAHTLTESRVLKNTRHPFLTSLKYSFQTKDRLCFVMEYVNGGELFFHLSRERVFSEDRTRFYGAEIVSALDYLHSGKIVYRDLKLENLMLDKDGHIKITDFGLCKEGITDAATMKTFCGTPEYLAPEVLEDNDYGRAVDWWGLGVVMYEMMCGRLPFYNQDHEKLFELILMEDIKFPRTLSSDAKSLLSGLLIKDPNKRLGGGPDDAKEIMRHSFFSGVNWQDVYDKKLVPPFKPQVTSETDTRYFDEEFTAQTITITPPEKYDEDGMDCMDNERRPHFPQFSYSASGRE
The following applies: AKT3, 1 μM; read-out: % control. An outline of the steps:
as §1

In test [4] the target is PLK2 (Homo sapiens, UniProt Q9NYY3). Particulars: PLK2, 1 μM; read-out: % control. An outline of the steps: as §1
Sequence of PLK2 (Q9NYY3 whole entry): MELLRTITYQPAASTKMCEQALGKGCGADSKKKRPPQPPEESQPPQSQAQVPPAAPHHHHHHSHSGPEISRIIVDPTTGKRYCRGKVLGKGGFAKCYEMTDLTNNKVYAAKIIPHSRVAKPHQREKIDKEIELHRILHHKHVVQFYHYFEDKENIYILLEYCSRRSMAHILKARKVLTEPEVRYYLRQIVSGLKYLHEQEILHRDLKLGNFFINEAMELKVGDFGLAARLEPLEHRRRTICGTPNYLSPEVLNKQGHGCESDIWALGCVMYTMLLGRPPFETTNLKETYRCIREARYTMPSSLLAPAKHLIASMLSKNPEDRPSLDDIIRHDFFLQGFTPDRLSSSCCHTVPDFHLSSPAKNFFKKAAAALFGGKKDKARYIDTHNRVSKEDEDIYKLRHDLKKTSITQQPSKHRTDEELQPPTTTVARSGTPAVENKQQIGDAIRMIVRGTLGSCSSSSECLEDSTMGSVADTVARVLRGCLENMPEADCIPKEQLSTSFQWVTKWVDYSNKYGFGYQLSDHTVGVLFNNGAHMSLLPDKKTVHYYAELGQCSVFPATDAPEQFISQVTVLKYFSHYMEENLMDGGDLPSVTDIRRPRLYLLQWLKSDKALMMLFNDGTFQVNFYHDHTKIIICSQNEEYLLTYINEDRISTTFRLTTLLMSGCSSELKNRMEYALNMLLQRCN
The target of test [5] is CSNK1E (Homo sapiens, UniProt P49674). The following applies: read-out: % control. An outline of the steps: as §1
Sequence of CSNK1E (P49674 whole entry): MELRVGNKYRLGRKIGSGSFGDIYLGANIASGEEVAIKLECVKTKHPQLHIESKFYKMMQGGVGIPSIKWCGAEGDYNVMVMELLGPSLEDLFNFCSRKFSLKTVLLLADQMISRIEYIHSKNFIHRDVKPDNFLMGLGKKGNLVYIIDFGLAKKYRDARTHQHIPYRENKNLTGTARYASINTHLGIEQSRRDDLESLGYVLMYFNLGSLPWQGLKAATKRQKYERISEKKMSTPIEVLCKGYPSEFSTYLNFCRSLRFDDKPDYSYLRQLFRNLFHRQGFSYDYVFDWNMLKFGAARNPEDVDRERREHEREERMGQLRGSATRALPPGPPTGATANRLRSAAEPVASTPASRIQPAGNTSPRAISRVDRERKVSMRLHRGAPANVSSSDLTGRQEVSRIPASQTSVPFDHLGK
Test [6] concerns the target CDK4 (Homo sapiens, UniProt P11802). The following applies: CDK4, 1 μM; read-out: % control. An outline of the steps: as §1
The target of test [7] is T4, ASK2 (Homo sapiens, UniProt O95382).
T4 construct: purchased KinomeScan®
T4 sequence (O95382 1-1288): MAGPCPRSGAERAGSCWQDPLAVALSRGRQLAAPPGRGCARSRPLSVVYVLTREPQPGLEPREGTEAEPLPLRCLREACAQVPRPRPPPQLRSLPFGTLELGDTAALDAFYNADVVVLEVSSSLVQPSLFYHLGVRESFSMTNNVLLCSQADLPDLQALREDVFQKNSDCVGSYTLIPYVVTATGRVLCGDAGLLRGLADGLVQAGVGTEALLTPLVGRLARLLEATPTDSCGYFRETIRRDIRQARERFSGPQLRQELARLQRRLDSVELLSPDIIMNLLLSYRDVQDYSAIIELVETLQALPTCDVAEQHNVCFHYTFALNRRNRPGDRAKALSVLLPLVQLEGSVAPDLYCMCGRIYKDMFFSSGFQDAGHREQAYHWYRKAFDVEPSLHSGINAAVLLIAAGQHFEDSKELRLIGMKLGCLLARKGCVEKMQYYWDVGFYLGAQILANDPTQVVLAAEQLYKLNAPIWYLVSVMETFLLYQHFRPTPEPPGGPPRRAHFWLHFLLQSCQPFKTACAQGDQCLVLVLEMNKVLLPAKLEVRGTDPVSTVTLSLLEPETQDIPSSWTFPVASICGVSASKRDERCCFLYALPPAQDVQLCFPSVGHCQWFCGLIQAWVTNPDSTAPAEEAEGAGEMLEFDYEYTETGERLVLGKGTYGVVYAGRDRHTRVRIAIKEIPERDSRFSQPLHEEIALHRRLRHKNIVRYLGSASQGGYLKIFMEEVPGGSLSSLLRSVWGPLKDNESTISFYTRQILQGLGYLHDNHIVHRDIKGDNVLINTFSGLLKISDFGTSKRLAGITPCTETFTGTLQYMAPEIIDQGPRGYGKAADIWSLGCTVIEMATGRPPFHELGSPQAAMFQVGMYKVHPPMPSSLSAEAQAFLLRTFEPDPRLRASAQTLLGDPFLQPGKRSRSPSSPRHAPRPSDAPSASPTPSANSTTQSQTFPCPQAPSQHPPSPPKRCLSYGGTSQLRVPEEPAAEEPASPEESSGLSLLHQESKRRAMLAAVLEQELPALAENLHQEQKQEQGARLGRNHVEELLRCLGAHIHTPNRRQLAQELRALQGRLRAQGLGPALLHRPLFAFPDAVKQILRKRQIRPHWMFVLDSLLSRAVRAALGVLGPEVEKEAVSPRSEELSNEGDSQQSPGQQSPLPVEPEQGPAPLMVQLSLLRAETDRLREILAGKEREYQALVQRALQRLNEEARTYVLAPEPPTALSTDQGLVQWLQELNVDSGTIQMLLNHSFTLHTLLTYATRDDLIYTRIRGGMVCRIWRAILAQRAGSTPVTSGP
Particulars: ASK2, 1 μM; read-out: % control. An outline of the steps:
as §1

Test [8] deals with NEK4 (Homo sapiens, UniProt P51957). The following applies: NEK4, 1 μM; read-out: % control. An outline of the steps:
as §1

T2 sequence (P42336 whole entry H1047Y): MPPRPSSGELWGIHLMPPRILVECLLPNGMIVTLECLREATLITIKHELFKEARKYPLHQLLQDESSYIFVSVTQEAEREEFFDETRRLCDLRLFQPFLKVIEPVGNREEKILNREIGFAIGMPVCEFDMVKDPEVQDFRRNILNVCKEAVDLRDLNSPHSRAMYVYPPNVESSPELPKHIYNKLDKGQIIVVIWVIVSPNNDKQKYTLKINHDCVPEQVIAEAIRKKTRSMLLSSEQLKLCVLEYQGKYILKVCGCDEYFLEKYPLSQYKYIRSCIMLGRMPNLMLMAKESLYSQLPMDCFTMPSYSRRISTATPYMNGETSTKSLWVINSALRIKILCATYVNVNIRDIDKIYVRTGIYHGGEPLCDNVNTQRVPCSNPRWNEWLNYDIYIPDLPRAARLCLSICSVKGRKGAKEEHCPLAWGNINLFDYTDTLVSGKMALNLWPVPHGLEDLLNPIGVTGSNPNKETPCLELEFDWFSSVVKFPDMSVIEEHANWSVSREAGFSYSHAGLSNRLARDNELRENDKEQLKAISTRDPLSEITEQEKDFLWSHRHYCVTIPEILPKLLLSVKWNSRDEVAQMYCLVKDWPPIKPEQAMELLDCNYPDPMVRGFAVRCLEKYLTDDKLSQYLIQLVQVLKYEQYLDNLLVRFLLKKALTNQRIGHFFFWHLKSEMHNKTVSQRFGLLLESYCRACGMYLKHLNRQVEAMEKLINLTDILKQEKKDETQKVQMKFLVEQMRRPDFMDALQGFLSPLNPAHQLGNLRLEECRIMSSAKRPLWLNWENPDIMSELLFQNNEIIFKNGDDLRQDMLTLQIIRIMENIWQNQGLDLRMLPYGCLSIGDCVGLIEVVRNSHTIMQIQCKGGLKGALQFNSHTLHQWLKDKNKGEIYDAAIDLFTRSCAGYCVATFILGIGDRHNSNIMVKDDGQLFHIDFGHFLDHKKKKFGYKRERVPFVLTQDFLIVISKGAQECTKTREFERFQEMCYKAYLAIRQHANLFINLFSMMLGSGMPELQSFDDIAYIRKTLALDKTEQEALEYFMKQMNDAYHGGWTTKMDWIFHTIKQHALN
Sequence of CDK4 (P11802 whole entry): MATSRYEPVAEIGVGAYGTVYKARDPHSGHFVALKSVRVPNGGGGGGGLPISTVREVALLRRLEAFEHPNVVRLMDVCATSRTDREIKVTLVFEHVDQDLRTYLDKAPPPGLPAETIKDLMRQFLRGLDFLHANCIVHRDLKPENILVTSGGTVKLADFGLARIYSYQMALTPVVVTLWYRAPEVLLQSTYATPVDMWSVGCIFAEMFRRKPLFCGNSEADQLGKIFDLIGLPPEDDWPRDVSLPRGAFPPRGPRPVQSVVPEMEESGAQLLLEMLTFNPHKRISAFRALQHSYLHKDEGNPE
Sequence of NEK4 (P51957 whole entry): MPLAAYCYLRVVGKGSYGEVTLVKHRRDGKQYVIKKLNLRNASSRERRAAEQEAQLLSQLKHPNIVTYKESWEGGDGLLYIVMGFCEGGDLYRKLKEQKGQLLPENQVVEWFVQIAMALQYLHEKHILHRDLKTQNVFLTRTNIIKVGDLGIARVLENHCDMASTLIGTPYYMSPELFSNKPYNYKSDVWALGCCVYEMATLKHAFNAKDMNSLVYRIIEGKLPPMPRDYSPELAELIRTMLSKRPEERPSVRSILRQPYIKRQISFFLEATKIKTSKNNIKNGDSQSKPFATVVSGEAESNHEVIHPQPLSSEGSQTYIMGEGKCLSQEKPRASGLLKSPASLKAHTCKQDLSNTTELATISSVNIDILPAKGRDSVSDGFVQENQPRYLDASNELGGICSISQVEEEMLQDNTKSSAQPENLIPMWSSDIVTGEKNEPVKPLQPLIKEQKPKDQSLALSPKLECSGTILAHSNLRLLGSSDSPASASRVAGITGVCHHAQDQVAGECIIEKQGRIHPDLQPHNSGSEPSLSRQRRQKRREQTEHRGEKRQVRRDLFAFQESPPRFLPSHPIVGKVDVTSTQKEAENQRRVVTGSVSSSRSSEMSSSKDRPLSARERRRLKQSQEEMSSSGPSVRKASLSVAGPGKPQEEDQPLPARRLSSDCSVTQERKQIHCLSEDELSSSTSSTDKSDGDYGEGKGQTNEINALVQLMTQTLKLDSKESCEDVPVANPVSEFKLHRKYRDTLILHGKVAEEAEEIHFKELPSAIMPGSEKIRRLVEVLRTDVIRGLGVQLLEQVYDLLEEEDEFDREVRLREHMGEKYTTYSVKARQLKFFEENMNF

Turning to `CNc1c(-c2cnn([C@H]3CCN(C(C)=O)C[C@@H]3F)c2)cnc2[nH]cc(Cl)c12` [Compound 77, 1-((3S,4S)-4-(4-(3-chloro-4-(methylamino)-1H-pyrrolo[2,3-b]pyridin-5-yl)-1H-pyrazol-1-yl)-3-fluoropiperidin-1-yl)ethan-1-one], the remaining binding at 1 µM in test [1] amounted to 100%; in test [2] it was 70%; in test [3], 95%; in test [4], 85%; in test [5], 68%; in test [6] it was 85%. The values for the remaining binding at 1 µM in test [7] and in test [8] were 30% and 82%, respectively.
On to `CNc1c(-c2ccc(C(=O)N3CCC(N4CCOCC4)CC3)cc2)cnc2[nH]cc(Cl)c12` [Compound 96, (4-(3-chloro-4-(methylamino)-1H-pyrrolo[2,3-b]pyridin-5-yl)phenyl)(4-morpholinopiperidin-1-yl)methanone], for which the remaining binding at 1 µM in test [1] amounted to 100%; in test [2], 84%; in test [3] it was 100%; in test [4], 100%; in test [5], 17%; in test [6], 98%. The remaining binding at 1 µM was found to be 42% in test [7] and 65% in test [8].
`O=C(c1ccc(-c2cnc3[nH]cc(Cl)c3c2NC2CCCC2)cc1)N1CCC(N2CCOCC2)CC1` [Compound 101, (4-(3-chloro-4-(cyclopentylamino)-1H-pyrrolo[2,3-b]pyridin-5-yl)phenyl)(4-morpholinopiperidin-1-yl)methanone]: the remaining binding at 1 µM in test [1] stood at 56%; in test [2] it was 100%; in test [3] it was 99%; in test [4], 100%; in test [5], 81%; in test [6], 100%. The remaining binding at 1 µM in test [7] and in test [8] was 100% in each case.
